Results reported in ChEMBL document CHEMBL6096679, “Recent Progress in the Development of Glucose Transporter (GLUT) Inhibitors” (J Med Chem, 2025).

target: T1, Solute carrier family 2, facilitated glucose transporter member 9 (Homo sapiens, UniProt Q9NRM0); experiment: Inhibition of GLUT9 (unknown origin) overexpressed in uric acid-induced HEK293 cells by patch clamp analysis; assay type: cell-based; details: not given
T1 sequence (Q9NRM0 whole entry): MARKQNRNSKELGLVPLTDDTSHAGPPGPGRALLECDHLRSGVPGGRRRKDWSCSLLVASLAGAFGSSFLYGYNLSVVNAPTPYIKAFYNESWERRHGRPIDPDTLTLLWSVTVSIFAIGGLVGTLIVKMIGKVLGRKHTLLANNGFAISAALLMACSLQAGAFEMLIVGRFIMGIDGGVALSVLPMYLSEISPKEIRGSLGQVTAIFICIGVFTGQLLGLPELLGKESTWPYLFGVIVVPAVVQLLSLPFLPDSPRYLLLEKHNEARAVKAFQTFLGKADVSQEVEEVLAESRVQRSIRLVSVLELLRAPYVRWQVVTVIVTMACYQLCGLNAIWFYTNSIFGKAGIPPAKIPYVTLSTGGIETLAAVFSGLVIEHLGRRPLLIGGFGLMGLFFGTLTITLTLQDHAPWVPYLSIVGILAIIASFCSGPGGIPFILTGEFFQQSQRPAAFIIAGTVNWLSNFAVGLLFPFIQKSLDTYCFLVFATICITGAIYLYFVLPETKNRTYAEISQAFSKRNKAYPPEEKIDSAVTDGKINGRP

SMILES | IC50 [µM]
CCOC(=O)Cn1c2c(c3ccccc31)C[C@@H]1C[C@@H]2[C@H](OC)CN1C(=O)c1cccnc1SC | 11.4
CCOc1cccc2c1O[C@]1(C)C[C@@H]2NC(=O)N1c1cccc(C(=O)NCCc2ccc(C)cc2)c1 | 0.32
O=c1cc(-c2ccc(O)cc2)oc2cc(O)cc(O)c12 [APIGENIN] | 2.63
COc1cc(/C=C/C(=O)CC(=O)/C=C/c2ccc(O)c(OC)c2)ccc1O [CURCUMIN] | 19
C=C1[C@@H](C)[C@H]2[C@H](Cc3ccccc3)NC(=O)[C@]23OC(=O)/C=C/[C@H](O)CCC[C@@H](C)C/C=C/[C@H]3[C@@H]1O [CYTOCHALASIN B] | 0.44
O=C(CCc1ccc(O)cc1)c1c(O)cc(O)cc1O [PHLORETIN] | 49

tested on: 3T3-L1; experiment: Induction of glucose uptake in mouse 3T3-L1 cells assessed as increase in glucose uptake; assay type: functional, cell-based; details: not given

SMILES | IC50 [µM]
O=C(Oc1cccc(OC(=O)c2cccc(O)c2)c1OC(=O)c1cccc(O)c1)c1cccc(O)c1 | 0.3
O=C(Oc1cccc(OC(=O)c2cc(O)c(O)c(O)c2)c1OC(=O)c1cc(O)c(O)c(O)c1)c1cc(O)c(O)c(O)c1 | 5
O=C(Oc1cccc(F)c1OC(=O)c1cccc(O)c1)c1cccc(O)c1 | 0.5
O=C1CC(c2ccc(-c3cc[nH]n3)s2)c2cc(N3CCNC3=O)ccc2N1 (stereo not drawn) | 33
O=C(Nc1ccc(Cl)c(C(F)(F)F)c1)c1ccc(Cl)cc1 | 61
OC[C@H]1O[C@](O)(CO)[C@@H](O)[C@@H]1O | 3.9
CC(=O)CC(=O)Nc1ccc(Cl)c(C(F)(F)F)c1 | 68
FC(F)(F)c1cc(NC(=S)NCc2ccccc2)ccc1Cl | 61
O=C1CC(c2cccc3[nH]ccc23)c2ccc(NC(=O)c3cccnc3)cc2N1 (stereo not drawn) | 28
COc1ccc(CN(CC[C@@H](c2ccccc2)[C@H]2CCOC(C)(C)C2)C(=O)c2ccco2)cc1OC | 0.11
OC[C@H]1OC(O)[C@H](O)[C@@H](O)[C@@H]1O (stereo partly drawn) [DEXTROSE] | 1.4
CC/C=C\C/C=C\C/C=C\C/C=C\C/C=C\C/C=C\CCC(=O)O [DOCONEXENT] | 0.8
N[C@H]1C(O)O[C@H](CO)[C@@H](O)[C@@H]1O (stereo partly drawn) [GLUCOSAMINE] | 0.9

tested on: A549; experiment: Inhibition of glycolysis in human A549 cells assessed as decrease in HK2 activity incubated for 48 hrs by spectrophotometric assay; assay type: functional, cell-based; details: A549, 48 h

SMILES | IC50 [µM]
O=C(COc1cccc(-c2nc3c(c(Nc4ccc(-c5cn[nH]c5)cc4)n2)COC3)c1)NC1CCCC1 | < 0.1
O=C(COc1cccc(-c2nc3c(c(Nc4ccc(-c5cn[nH]c5)cc4)n2)COC3)c1)NC1CCC1 | < 0.1
CC(C)NC(=O)COc1cccc(-c2nc(Nc3ccc(-c4cn[nH]c4)cc3)c3sccc3n2)c1 | < 0.1
CC(C)NC(=O)COc1cccc(-c2nc3c(c(Nc4ccc(-c5cn[nH]c5)cc4)n2)COC3)c1 | < 0.1
O=C(COc1cccc(-c2nc(Nc3ccc(-c4cn[nH]c4)cc3)c3sccc3n2)c1)NC1CCCC1 | < 0.1
CCCCC1C(=O)NC2Cc3cccc4ccc(cc34)N1C(=O)COc1cccc(c1)[C@@H](CCc1ccc(OC)c(OC)c1)OC(=O)C1CCCCN1C(=O)C(=O)C(C)(C)COC(=O)/C=C\CCN(C)C(=O)CNC(=O)C(COC(C)(C)C)N(C)C2=O (stereo partly drawn) | < 0.1

tested on: not listed separately; experiment: Induction of GLUT1 translocation in mouse 3T3-L1 cells by Western blot analysis; assay type: cell-based; details: not given

SMILES | IC50 [nM]
COc1ccccc1N1CCN(c2ncnc3c2cnn3-c2cc(F)cc(F)c2)CC1 | 0.09
C[C@H](NC(=O)[C@H](Cc1ccc(F)cc1)NC(=O)Cc1cccc(O)c1)c1ccccc1 | 0.2
CCOc1ccc2nc(-c3cccc(OCC(=O)NC(C)C)c3)nc(Nc3ccc(-c4cn[nH]c4)cc3)c2c1 | 115
Cc1ccc(CNc2ccc(Cl)cc2NCc2ccc(C)c(O)c2)cc1O | 2600
O=C(CN1C(=O)S/C(=C/c2ccco2)C1=O)Nc1ccc(Cl)c(Cl)c1 | 14700
O=C(CN1C(=O)S/C(=C/c2ccco2)C1=O)Nc1nc2ccccc2s1 | 11400
COc1ccc(CC(=O)N[C@@H](Cc2cccc(Br)c2)C(=O)N[C@@H](C)c2ccccc2)cc1 | 0.14
CCC(C)[C@H]1C(=O)NCC(=O)N(C)CC/C=C/C(=O)OCC(C)(C)C(=O)C(=O)N2CCCC[C@H]2C(=O)O[C@H](CCc2ccc(OC)c(OC)c2)c2cccc(c2)NC(=O)CCC(=O)N(C)[C@@H](CC(C)C)C(=O)N[C@H](Cc2ccccc2)C(=O)N1C (stereo partly drawn) | 78
O=C(CN1C(=O)S/C(=C/c2ccc(Cl)cc2)C1=O)Nc1ccc(Cl)cc1C(F)(F)F | 5400
C[C@@]1(C(=O)NCc2cccnc2)Cn2nc(-c3ccccc3)cc2C(=O)N1Cc1ccc(N2CCOCC2)cc1 | 6.2
O=C(CN1C(=O)S/C(=C/c2ccc(F)cc2)C1=O)Nc1cccc(C(F)(F)F)c1 | 26600
O=C(CN1C(=O)S/C(=C/c2ccccc2)C1=O)Nc1nc2c(Cl)cccc2s1 | 12600

target: T2, Solute carrier family 2, facilitated glucose transporter member 1 (Homo sapiens, UniProt P11166); experiment: Inhibition of GLUT1 in human wild-type DLD-1 cells assessed as reduction in ATP level measured after 90 mins by Celltiter-glo luminescent assay; assay type: cell-based; details: not given
T2 sequence (P11166 whole entry): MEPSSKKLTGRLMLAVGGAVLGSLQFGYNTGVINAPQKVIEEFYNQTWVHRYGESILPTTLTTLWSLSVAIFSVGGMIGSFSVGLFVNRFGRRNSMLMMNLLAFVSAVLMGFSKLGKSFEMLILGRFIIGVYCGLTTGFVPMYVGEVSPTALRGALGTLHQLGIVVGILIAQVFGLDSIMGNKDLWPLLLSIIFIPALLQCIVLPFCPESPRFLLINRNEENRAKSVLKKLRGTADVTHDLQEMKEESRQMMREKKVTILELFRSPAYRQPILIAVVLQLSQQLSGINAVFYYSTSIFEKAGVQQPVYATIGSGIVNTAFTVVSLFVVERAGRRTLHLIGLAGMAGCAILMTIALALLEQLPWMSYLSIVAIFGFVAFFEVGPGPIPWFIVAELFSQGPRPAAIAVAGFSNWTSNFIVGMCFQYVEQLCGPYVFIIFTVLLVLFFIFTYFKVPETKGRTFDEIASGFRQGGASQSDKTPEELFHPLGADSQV

SMILES | IC50 [µM]
CC(CN1C(=O)S/C(=C\c2ccc(O)c(C(F)(F)F)c2)C1=O)(CC(F)(F)F)CC(F)(F)F | 11.4
CN(Cc1cccc2ncccc12)C(=O)c1cnn(-c2ncc3c(n2)-c2ccccc2CC3)c1C1CC1 | 7.07
CC(C)(C)c1ccc(S(=O)(=O)NCc2ccc(C(=O)Nc3cccnc3)cc2)cc1 | 1
COc1ccc(-c2ccc(O)c(/C=N/O)c2)cc1F | 10.8
Cc1nn(C(=O)c2ccncc2)c(C)c1/N=N/c1ccc(Cl)cc1 | 11.1
COc1ccc(-c2ccc(/C(C)=N/O)c(O)c2Cl)cc1 | 1.67
COCc1c(C(=O)N2CCN(c3ccccc3)CC2)cnn1-c1ncc2c(n1)-c1ccccc1CCC2 | 6.08
O=C(COc1ccc(-c2csc3ccccc23)cc1CN1CCN(c2ccccn2)CC1)NCc1nccs1 | 6.32
Cc1cccc(NC(=O)CN2C(=O)N/C(=C/c3cc(C)n(-c4ccc(O)cc4)c3C)C2=O)c1 | 10.6
C/C(=N\O)c1ccc(-c2ccc(O)c(C)c2)c(Cl)c1O | 7
COc1ccc(-n2cc(-c3ccc(Cl)cc3)nc2NC(=O)CN(Cc2ccccc2)C(=O)c2ccc(C)cc2)cc1OC | 1.89
CCOC(=O)Cn1c2c(c3ccccc31)C[C@@H]1C[C@@H]2[C@H](OC)CN1C(=O)c1cccnc1SC | 0.0596
COc1ccccc1N1CCN(C(=O)c2cnn(-c3nccc(-c4cccs4)n3)c2C2CC2)CC1 | 2.87
CCOc1cccc2c1O[C@]1(C)C[C@@H]2NC(=O)N1c1cccc(C(=O)NCCc2ccc(C)cc2)c1 | 0.162
COc1ccc(C2=CC(c3ccc(F)cc3)N(C(=O)CSc3c(C)[nH]c4ccccc34)N2)cc1 (stereo not drawn) | 0.61
O=C(Oc1ccc2ccc(=O)oc2c1OC(=O)c1ccc(O)cc1)c1ccc(O)cc1 | 38
C/C(=N\O)c1ccc(-c2ccc(O)c(Cl)c2)c(Cl)c1O | 0.29

tested on: not listed separately; experiment: Induction of GLUT4 translocation in mouse 3T3-L1 cells Cytosol by Western blot analysis; assay type: subcellular; details: not given

SMILES | IC50 [µM]
CS(=O)(=O)c1ccc(Nc2ccc3c(c2)OCO3)c([N+](=O)[O-])c1 | 5.8
Cc1cc(NC(=O)CCC2Cc3ccccc3NC2=O)nc(-c2ccccc2)n1 (stereo not drawn) | 3.88
Cc1ccccc1CN(Cc1nnc(C(C)(C)C)o1)c1ccc2nc(O)[nH]c2c1 | 6.94
CC(=O)Nc1ccc(S(=O)(=O)Nc2ccc(Nc3cc(N(C)C)nc(C)n3)cc2)cc1 | 7.01
